pEC50: −log10 of the molar value.

The values below come from patent US20200361871A1 (Enterprise Therapeutics Ltd., priority 2018, published 2020).

The target in the assay is human TMEM16A (TMEM16Aabc variant) (Homo sapiens, UniProt Q5XXA6, DEL476-501, form not given). Kind of assay: Automated whole-cell patch clamp (Qpatch) TMEM16A potentiator assay in FRT cells stably expressing human TMEM16A. The format is cell-based. As to conditions: for % Potentiation @ 3.33 μM Avg: 3.33 μM solution of test compound, percentage increase of baseline TMEM16A current; for pEC50: calculated EC50, Qpatch TMEM16A current at +70 mV. In a few lines:
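Potentiation was read as the rise in peak +70 mV current over baseline (%), from cumulative 5-min additions of compound. Recordings used whole-cell automated patch of FRT cells stably carrying human TMEM16Aabc, with pipette Ca2+ buffered to give ~20% maximal current. EC50 and efficacy came from concentration-response fits.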

Chain of human TMEM16A (TMEM16Aabc variant) (Q5XXA6 with tags, fused parts or gaps DEL476-501): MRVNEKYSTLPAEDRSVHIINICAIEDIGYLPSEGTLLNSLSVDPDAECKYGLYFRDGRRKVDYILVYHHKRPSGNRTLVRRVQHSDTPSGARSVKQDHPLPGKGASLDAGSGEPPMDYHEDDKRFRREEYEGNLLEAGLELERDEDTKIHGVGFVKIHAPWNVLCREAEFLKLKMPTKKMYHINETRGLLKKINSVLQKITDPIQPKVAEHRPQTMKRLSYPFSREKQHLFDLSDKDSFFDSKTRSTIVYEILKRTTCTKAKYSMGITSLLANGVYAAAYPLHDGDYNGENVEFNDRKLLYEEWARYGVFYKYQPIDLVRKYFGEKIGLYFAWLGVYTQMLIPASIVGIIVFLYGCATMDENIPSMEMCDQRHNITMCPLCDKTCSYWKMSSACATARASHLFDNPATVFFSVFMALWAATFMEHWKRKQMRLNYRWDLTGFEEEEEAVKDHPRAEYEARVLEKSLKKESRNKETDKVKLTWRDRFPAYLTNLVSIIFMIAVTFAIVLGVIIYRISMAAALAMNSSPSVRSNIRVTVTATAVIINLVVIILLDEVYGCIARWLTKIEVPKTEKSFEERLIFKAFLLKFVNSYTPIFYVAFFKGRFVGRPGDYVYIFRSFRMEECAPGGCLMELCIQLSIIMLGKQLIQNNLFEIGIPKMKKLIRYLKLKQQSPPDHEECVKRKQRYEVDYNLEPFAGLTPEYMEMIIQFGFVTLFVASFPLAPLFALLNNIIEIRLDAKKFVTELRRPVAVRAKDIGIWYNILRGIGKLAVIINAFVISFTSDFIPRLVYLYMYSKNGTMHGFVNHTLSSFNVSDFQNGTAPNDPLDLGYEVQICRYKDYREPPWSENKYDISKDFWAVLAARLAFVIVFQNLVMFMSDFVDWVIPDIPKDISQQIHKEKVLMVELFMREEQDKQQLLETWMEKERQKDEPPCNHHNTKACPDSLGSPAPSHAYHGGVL

As to `O=C(Cc1cc(Cl)ccc1O)Nc1ccnc(C(=O)NC23CC(C2)C3)c1` [Example 7.15, N-(3-Bicyclo[1.1.1]pentanyl)-4-[[2-(5-chloro-2-hydroxy-phenyl)acetyl]amino]pyridine-2-carboxamide], the “% Potentiation @ 3.33 μM Avg” value is on record as 230% and the pEC50 was 7.30. Regarding `N#CC1(NC(=O)c2cc(NC(=O)Cc3cc(Cl)ccc3O)ccn2)CCC1` [Example 7.16, 4-[[2-(5-Chloro-2-hydroxy-phenyl)acetyl]amino]-N-(1-cyanocyclobutyl)pyridine-2-carboxamide], the “% Potentiation @ 3.33 μM Avg” value is 354% and the negative logarithm of the EC50 (pEC50) was 6.89. Regarding `CC(C)(C)OC(=O)N1CCCC(NC(=O)c2cccc(NC(=O)Cc3cc(Cl)ccc3O)c2)C1` (stereo not drawn) [Example 8, tert-Butyl-3-[[3-[[2-(5-chloro-2-hydroxy-phenyl)acetyl]amino]benzoyl]amino] piperidine-1-carboxylate], the “% Potentiation @ 3.33 μM Avg” value is given as 88% and the pEC50 is 5.52. With `CC(C)(C)OC(=O)N1CCCC(NC(=O)c2cc(NC(=O)Cc3cc(Cl)ccc3O)ccn2)C1` (stereo not drawn) [Example 8.1, tert-Butyl-3-[[4-[[2-(5-chloro-2-hydroxy-phenyl)acetyl]amino]pyridine-2-carbonyl]amino]piperidine-1-carboxylate], the “% Potentiation @ 3.33 μM Avg” value is 155% and the pEC50 is 6.23.

In the case of `CC1(NC(=O)c2cccc(NC(=O)Cc3cc(Cl)ccc3O)c2)CCN(C(=O)OC(C)(C)C)CC1` [Example 8.2, tert-Butyl 4-[[3-[[2-(5-chloro-2-hydroxy-phenyl)acetyl]amino]benzoyl]amino]-4-methyl-piperidine-1-carboxylate], the “% Potentiation @ 3.33 μM Avg” value is 169% and the negative logarithm of the EC50 (pEC50) was 5.71. `CC(C)(C)OC(=O)N1C[C@@H]2[C@H](C1)[C@H]2NC(=O)c1cc(NC(=O)Cc2cc(Cl)ccc2O)ccn1` [Example 8.3, tert-Butyl (1r,5s,6s)-6-{4-[2-(5-chloro-2-hydroxyphenyl)acetamido]pyridine-2-amido}-3-azabicyclo[3.1.0]hexane-3-carboxylate]: the “% Potentiation @ 3.33 μM Avg” value was 238% and the negative-log EC50 (pEC50) was 6.64.

Turning to `CC(C)(C)NC(=O)c1ccc(F)c(NC(=O)Cc2cc(Cl)ccc2O)c1` [Example 9, N-tert-Butyl-3-[[2-(5-chloro-2-hydroxy-phenyl)acetyl]amino]-4-fluoro-benzamide], the “% Potentiation @ 3.33 μM Avg” value worked out at 149% and the pEC50 was 6.64. Taken in the same sequence, the figures for `Cc1cc(NC(=O)Cc2cc(Cl)ccc2O)cc(C(=O)NC(C)(C)C)c1` [Example 9.1, N-tert-Butyl-3-[[2-(5-chloro-2-hydroxy-phenyl)acetyl]amino]-5-methyl-benzamide] were 77% and 5.34. Take `CCC(C)(C)NC(=O)c1cc(NC(=O)Cc2cc(Cl)ccc2O)ccn1` [Example 9.2, 4-[[2-(5-Chloro-2-hydroxy-phenyl)acetyl]amino]-N-(1,1-dimethylpropyl)pyridine-2-carboxamide]: the “% Potentiation @ 3.33 μM Avg” value is 196% and the pEC50 is 6.72. Taken in the same sequence, the figures for `CC(C)(C)NC(=O)c1cc(NC(=O)Cc2cc(C(C)(C)C)ccc2O)ccn1` [Example 10, N-tert-Butyl-4-[[2-(5-tert-butyl-2-hydroxy-phenyl)acetyl]amino]pyridine-2-carboxamide] were 250% and 6.66. `CC(C)(C)NC(=O)c1cc(NC(=O)Cc2cc(Cl)ccc2O)ccc1O` [Example 11, N-tert-Butyl-5-[[2-(5-chloro-2-hydroxy-phenyl)acetyl]amino]-2-hydroxy-benzamide]: the “% Potentiation @ 3.33 μM Avg” value turned out to be 76% and the pEC50 is 6.05.

As for `CC(C)(C)NC(=O)c1cccc(NC(=O)Cc2cc(C#N)ccc2O)c1` [Example 12, N-tert-Butyl-3-[[2-(5-cyano-2-hydroxy-phenyl)acetyl]amino] benzamide], the “% Potentiation @ 3.33 μM Avg” value came out at 112% and the negative-log EC50 (pEC50) was 5.75. For `COC(=O)c1ccc(O)c(CC(=O)Nc2ccnc(C(=O)NC(C)(C)C)c2)c1` [Example 13, Methyl 3-[2-[[2-(tert-butylcarbamoyl)-4-pyridyl]amino]-2-oxo-ethyl]-4-hydroxy-benzoate], the “% Potentiation @ 3.33 μM Avg” value is 245% and the pEC50 is 6.00. Turning to `CC(C)(C)NC(=O)c1ccc(O)c(NC(=O)Cc2cc(Cl)ccc2O)c1` [Example 14, N-tert-Butyl-3-[[2-(5-chloro-2-hydroxy-phenyl)acetyl]amino]-4-hydroxy-benzamide], the “% Potentiation @ 3.33 μM Avg” value is 58%. Turning to `Cc1ccc(O)c(CC(=O)Nc2ccnc(C(=O)NC(C)(C)C)c2)c1` [Example 15, N-tert-Butyl-4-[[2-(2-hydroxy-5-methyl-phenyl)acetyl]amino]pyridine-2-carboxamide], the “% Potentiation @ 3.33 μM Avg” value was found to be 200% and the pEC50 is 6.89. Take `COc1ccc(C(=O)NC(C)(C)C)cc1NC(=O)Cc1cc(Cl)ccc1O` [Example 16, N-tert-Butyl-3-[[2-(5-chloro-2-hydroxy-phenyl)acetyl]amino]-4-methoxy-benzamide]: the “% Potentiation @ 3.33 μM Avg” value is 63%. As to `CC(C)(C)NC(=O)c1cc(NC(=O)Cc2cc(Cl)ccc2O)ccc1F` [Example 17, N-tert-Butyl-5-[[2-(5-chloro-2-hydroxy-phenyl)acetyl]amino]-2-fluoro-benzamide], the “% Potentiation @ 3.33 μM Avg” value amounted to 173% and the pEC50 was 5.83. As to `CC(C)(C)NC(=O)c1cc(F)cc(NC(=O)Cc2cc(Cl)ccc2O)c1` [Example 18, N-tert-Butyl-3-[[2-(5-chloro-2-hydroxy-phenyl)acetyl]amino]-5-fluoro-benzamide], the “% Potentiation @ 3.33 μM Avg” value came to 405% and the pEC50 is 6.35. As for `CC(C)(C)NC(=O)c1cc(NC(=O)Cc2ncccc2O)ccn1` [Example 19, N-tert-Butyl-4-[[2-(3-hydroxy-2-pyridyl)acetyl]amino]pyridine-2-carboxamide], the “% Potentiation @ 3.33 μM Avg” value turned out to be 57%. `CC(C)(C)NC(=O)c1cc(NC(=O)Cc2cc(F)ccc2O)ccn1` [Example 20, N-tert-Butyl-4-[[2-(5-fluoro-2-hydroxy-phenyl)acetyl]amino]pyridine-2-carboxamide]: the “% Potentiation @ 3.33 μM Avg” value is 111% and the pEC50 is 6.66. Take `C#CC(C)(C)NC(=O)c1cc(NC(=O)CC(C)(C)C)ccn1` [Example 22.1, 4-(3,3-Dimethylbutanoylamino)-N-(1,1-dimethylprop-2-ynyl)pyridine-2-carboxamide]: the “% Potentiation @ 3.33 μM Avg” value is listed as 114%.

Regarding `C#CC(C)(C)NC(=O)c1cc(NC(=O)CC2CCCC2)ccn1` [Example 22.2, 4-[(2-Cyclopentylacetyl)amino]-N-(1,1-dimethylprop-2-ynyl)pyridine-2-carboxamide], the “% Potentiation @ 3.33 μM Avg” value was 157% and the negative-log EC50 (pEC50) was 6.59. Consider `C#CC(C)(C)NC(=O)c1cc(NC(=O)Cc2ccncc2Cl)ccn1` [Example 22.3, 4-[[2-(3-Chloro-4-pyridyl)acetyl]amino]-N-(1,1-dimethylprop-2-ynyl)pyridine-2-carboxamide], for which the “% Potentiation @ 3.33 μM Avg” value amounted to 132%. Same read-out and setting: to `N#CC1(NC(=O)c2cc(NC(=O)Cc3ccc(Cl)cc3)ccn2)CC1` [Example 23, 4-[[2-(4-Chlorophenyl)acetyl]amino]-N-(1-cyanocyclopropyl)pyridine-2-carboxamide] belongs 93%.

Usually pEC50 stands for −log10 of the EC50, conventionally taken in molar units.
